Values quoted from earlier work in patent US20050003017A1, “Hypotensive and hypertensive properties of renomedullar extracts” (priority 2000, published 2005).

Details: low stability; Svensson et al.

half life: about 30 seconds
Compound: CCCCC[C@H](O)/C=C/[C@H]1O[C@H]2C[C@H](O2)[C@@H]1C/C=C\CCCC(=O)O [thromboxan A2]
